Measurements from PMC3926237, “Identification of Levothyroxine Antichagasic Activity through Computer-Aided Drug Repurposing” (The Scientific World Journal, 2014).

Biological target: cruzipain (Cz) (Trypanosoma cruzi, UniProt P25779)
Assay: chromogenic Bz-Pro-Phe-Arg-pNA protease assay on partially purified native cruzipain, […] nm
Type: biochemical

Chain of cruzipain (Cz) (P25779 123-467): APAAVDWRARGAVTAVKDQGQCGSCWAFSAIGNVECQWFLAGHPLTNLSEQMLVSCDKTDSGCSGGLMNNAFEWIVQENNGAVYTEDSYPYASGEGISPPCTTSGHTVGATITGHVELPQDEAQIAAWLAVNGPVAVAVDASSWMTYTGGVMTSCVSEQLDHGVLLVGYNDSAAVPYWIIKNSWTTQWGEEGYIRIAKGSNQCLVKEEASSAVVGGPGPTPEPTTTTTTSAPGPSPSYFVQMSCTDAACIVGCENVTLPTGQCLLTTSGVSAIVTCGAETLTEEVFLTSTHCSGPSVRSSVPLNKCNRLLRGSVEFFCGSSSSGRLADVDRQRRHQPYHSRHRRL

N[C@@H](Cc1cc(I)c(Oc2cc(I)c(O)c(I)c2)c(I)c1)C(=O)O [levothyroxine]
IC50: 38.4 ± 6.82 µM
